Patent US20220323406A1, “METHODS AND COMPOSITIONS FOR DIFFERENTIATING STEM CELLS” (Massachusetts Institute of Technology, priority 2019, published 2022)

Key:
[1] = tested on: ENR+CD organoids (ISC to Paneth cell differentiation); assay: Primary screen: basal (non-stimulated) lysozyme secretion LYZ.NS, 2.5-D 384-well ENR+CD organoid differentiation; assay type: cell-based, mouse
Description: (§1) High-throughput screening.

ENR+CD organoids = assay: Primary screen: ATP (CellTiter-Glo 3D, CTG) cell number/viability, 2.5-D 384-well ENR+CD organoids; details: primary screen; for Z.CTG: standard z score;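 as to all read-outs here: compounds given at plating and again on day 3 over a 6-day differentiation from ENR+CV stem-cell-enriched precursors, ATP measured on day 6, plate median as control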
[2] = tested on: ENR+CD organoids (ISC to Paneth cell differentiation); assay: Primary screen: CCh-stimulated lysozyme secretion LYZ.S, 2.5-D 384-well ENR+CD organoid differentiation; assay type: cell-based, mouse; details: primary screen
Description: as §1

[3] = primary screen, standard z score, dose 0.08 uM
[4] = primary screen, standard z score, dose 0.40 uM
[5] = primary screen, standard z score, dose 2.00 uM
[6] = primary screen, standard z score, dose 10.00 uM
[7] = dose 0.08 uM, FC relative to plate median
[8] = dose 0.40 uM, FC relative to plate median
[9] = dose 2.00 uM, FC relative to plate median
[10] = dose 10.00 uM, FC relative to plate median

Compound: O=C(/C=C/c1ccc(O)c(O)c1)OCCc1ccccc1 [Caffeic Acid Phenethyl Ester]
- Dose.FC.LYZ.NS ([1]; primary screen, dose 0.08 uM): 0.053 log2 fold change
- Dose.FC.LYZ.NS ([1]; primary screen, dose 0.40 uM): 0.167 log2 fold change
- Dose.FC.LYZ.NS ([1]; primary screen, dose 2.00 uM): 0.090 log2 fold change
- Dose.FC.LYZ.NS ([1]; primary screen, dose 10.00 uM): −0.026 log2 fold change
- Z.LYZ.NS [1, 3]: 0.465
- Z.LYZ.NS [1, 4]: 1.453
- Z.LYZ.NS [1, 5]: 0.781
- Z.LYZ.NS [1, 6]: −0.227
- Dose.FC.CTG (ENR+CD organoids; dose 0.08 uM): 0.262 log2 fold change
- Dose.FC.CTG (ENR+CD organoids; dose 0.40 uM): −0.011 log2 fold change
- Dose.FC.CTG (ENR+CD organoids; dose 2.00 uM): −0.064 log2 fold change
- Dose.FC.CTG (ENR+CD organoids; dose 10.00 uM): −0.511 log2 fold change
- Dose.FC.LYZ.S ([2]; dose 0.08 uM): 0.189 log2 fold change
- Dose.FC.LYZ.S ([2]; dose 0.40 uM): 0.070 log2 fold change
- Dose.FC.LYZ.S ([2]; dose 2.00 uM): −0.021 log2 fold change
- Dose.FC.LYZ.S ([2]; dose 10.00 uM): −0.117 log2 fold change

Compound: CN[C@@H](C)C(=O)N[C@H](C(=O)N1CCC[C@H]1C(=O)Nc1snnc1-c1ccccc1)C1CCCCC1 [GDC-0152]
- Dose.FC.LYZ.NS ([1]; primary screen, dose 0.08 uM): −0.002 log2 fold change
- Dose.FC.LYZ.NS ([1]; primary screen, dose 0.40 uM): −0.020 log2 fold change
- Dose.FC.LYZ.NS ([1]; primary screen, dose 2.00 uM): 0.083 log2 fold change
- Dose.FC.LYZ.NS ([1]; primary screen, dose 10.00 uM): 0.103 log2 fold change
- Z.LYZ.NS [1, 3]: −0.013
- Z.LYZ.NS [1, 4]: −0.176
- Z.LYZ.NS [1, 5]: 0.724
- Z.LYZ.NS [1, 6]: 0.900
- Dose.FC.CTG (ENR+CD organoids; dose 0.08 uM): 0.151 log2 fold change
- Dose.FC.CTG (ENR+CD organoids; dose 0.40 uM): 0.158 log2 fold change
- Dose.FC.CTG (ENR+CD organoids; dose 2.00 uM): 0.003 log2 fold change
- Dose.FC.CTG (ENR+CD organoids; dose 10.00 uM): 0.241 log2 fold change
- Z.CTG (ENR+CD organoids; dose 0.08 uM): 0.361
- Z.CTG (ENR+CD organoids; dose 0.40 uM): 0.377
- Z.CTG (ENR+CD organoids; dose 2.00 uM): 0.008
- Z.CTG (ENR+CD organoids; dose 10.00 uM): 0.575
- Dose.FC.LYZ.S ([2]; dose 0.08 uM): −0.020 log2 fold change
- Dose.FC.LYZ.S ([2]; dose 0.40 uM): −0.036 log2 fold change
- Dose.FC.LYZ.S ([2]; dose 2.00 uM): −0.057 log2 fold change
- Dose.FC.LYZ.S ([2]; dose 10.00 uM): −0.009 log2 fold change

Compound: CC#CCn1c(N2CCC[C@@H](N)C2)nc2c1c(=O)n(Cc1nc(C)c3ccccc3n1)c(=O)n2C [Linagliptin]
- Dose.FC.LYZ.NS (log2 fold change) ([1]; primary screen, dose 0.08 uM): 0.208
- Z.LYZ.NS (standard z score) ([1]; primary screen, dose 0.08 uM): 1.809
- Dose.FC.LYZ.NS (log2 fold change) ([1]; primary screen, dose 0.40 uM): 0.055
- Z.LYZ.NS (standard z score) ([1]; primary screen, dose 0.40 uM): 0.478
- Dose.FC.LYZ.NS (log2 fold change) ([1]; primary screen, dose 2.00 uM): 0.021
- Z.LYZ.NS (standard z score) ([1]; primary screen, dose 2.00 uM): 0.182
- Dose.FC.LYZ.NS (log2 fold change) ([1]; primary screen, dose 10.00 uM): 0.080
- Z.LYZ.NS (standard z score) ([1]; primary screen, dose 10.00 uM): 0.695
- Dose.FC.CTG (log2 fold change) (ENR+CD organoids; dose 0.08 uM): 0.163
- Dose.FC.CTG (log2 fold change) (ENR+CD organoids; dose 0.40 uM): 0.209
- Dose.FC.CTG (log2 fold change) (ENR+CD organoids; dose 2.00 uM): 0.023
- Dose.FC.CTG (log2 fold change) (ENR+CD organoids; dose 10.00 uM): −0.011
- Dose.FC.LYZ.S (log2 fold change) ([2]; dose 0.08 uM): 0.140
- Dose.FC.LYZ.S (log2 fold change) ([2]; dose 0.40 uM): 0.047
- Dose.FC.LYZ.S (log2 fold change) ([2]; dose 2.00 uM): −0.032
- Dose.FC.LYZ.S (log2 fold change) ([2]; dose 10.00 uM): 0.050

Compound: HA14-1
- Dose.FC.LYZ.NS (log2 fold change) ([1]; primary screen, dose 0.08 uM): 0.121
- Z.LYZ.NS (standard z score) ([1]; primary screen, dose 0.08 uM): 1.052
- Dose.FC.LYZ.NS (log2 fold change) ([1]; primary screen, dose 0.40 uM): 0.137
- Z.LYZ.NS (standard z score) ([1]; primary screen, dose 0.40 uM): 1.195
- Dose.FC.LYZ.NS (log2 fold change) ([1]; primary screen, dose 2.00 uM): 0.154
- Z.LYZ.NS (standard z score) ([1]; primary screen, dose 2.00 uM): 1.345
- Dose.FC.LYZ.NS (log2 fold change) ([1]; primary screen, dose 10.00 uM): 0.132
- Z.LYZ.NS (standard z score) ([1]; primary screen, dose 10.00 uM): 1.151
- Dose.FC.CTG (log2 fold change) (ENR+CD organoids; dose 0.08 uM): 0.534
- Z.CTG (standard z score) (ENR+CD organoids; dose 0.08 uM): 1.276
- Dose.FC.CTG (log2 fold change) (ENR+CD organoids; dose 0.40 uM): 0.526
- Z.CTG (standard z score) (ENR+CD organoids; dose 0.40 uM): 1.255
- Dose.FC.CTG (log2 fold change) (ENR+CD organoids; dose 2.00 uM): 0.554
- Z.CTG (standard z score) (ENR+CD organoids; dose 2.00 uM): 1.323
- Dose.FC.CTG (log2 fold change) (ENR+CD organoids; dose 10.00 uM): 0.388
- Z.CTG (standard z score) (ENR+CD organoids; dose 10.00 uM): 0.926
- Dose.FC.LYZ.S (log2 fold change) ([2]; dose 0.08 uM): 0.190
- Dose.FC.LYZ.S (log2 fold change) ([2]; dose 0.40 uM): 0.316
- Dose.FC.LYZ.S (log2 fold change) ([2]; dose 2.00 uM): 0.170
- Dose.FC.LYZ.S (log2 fold change) ([2]; dose 10.00 uM): 0.149

Compound: NC(=O)c1ccc(I)c([N+](=O)[O-])c1 [Iniparib (B5I-201)]
- Dose.FC.LYZ.NS (log2 fold change) ([1]; primary screen, dose 0.08 uM): 0.042
- Z.LYZ.NS (standard z score) ([1]; primary screen, dose 0.08 uM): 0.364
- Dose.FC.CTG (log2 fold change) (ENR+CD organoids; dose 0.08 uM): 0.339
- Z.CTG (standard z score) (ENR+CD organoids; dose 0.08 uM): 0.810
- Dose.FC.LYZ.S (log2 fold change) ([2]; dose 0.08 uM): 0.032

Compound: Cc1[nH]c(/C=C2\C(=O)Nc3ccc(S(=O)(=O)N(C)c4cccc(Cl)c4)cc32)c(C)c1C(=O)N1CCN(C)CC1 [SU11274]
- Dose.FC.LYZ.NS ([1]; primary screen, dose 0.08 uM, FC relative to plate median): 0.084 log2 fold change
- Z.LYZ.NS ([1]; primary screen, dose 0.08 uM, standard z score): 0.735
- Dose.FC.LYZ.NS ([1]; primary screen, dose 0.40 uM, FC relative to plate median): 0.120 log2 fold change
- Z.LYZ.NS ([1]; primary screen, dose 0.40 uM, standard z score): 1.043
- Dose.FC.LYZ.NS ([1]; primary screen, dose 2.00 uM, FC relative to plate median): 0.005 log2 fold change
- Z.LYZ.NS ([1]; primary screen, dose 2.00 uM, standard z score): 0.047
- Dose.FC.LYZ.NS ([1]; primary screen, dose 10.00 uM, FC relative to plate median): −0.207 log2 fold change
- Z.LYZ.NS ([1]; primary screen, dose 10.00 uM, standard z score): −1.804
- Dose.FC.CTG (ENR+CD organoids; [7]): 0.357 log2 fold change
- Dose.FC.CTG (ENR+CD organoids; [8]): 0.270 log2 fold change
- Dose.FC.CTG (ENR+CD organoids; [9]): 0.058 log2 fold change
- Dose.FC.CTG (ENR+CD organoids; [10]): −0.818 log2 fold change
- Dose.FC.LYZ.S [2, 7]: 0.115 log2 fold change
- Dose.FC.LYZ.S [2, 8]: 0.298 log2 fold change
- Dose.FC.LYZ.S [2, 9]: 0.008 log2 fold change
- Dose.FC.LYZ.S [2, 10]: −0.300 log2 fold change

Compound: COc1ccc(C[C@@H](C)NC[C@H](O)c2ccc(O)c(NC=O)c2)cc1.COc1ccc(C[C@@H](C)NC[C@H](O)c2ccc(O)c(NC=O)c2)cc1.O=C(O)/C=C/C(=O)O [Formoterol Hemifumarate]
- Dose.FC.LYZ.NS ([1]; primary screen, dose 0.08 uM): 0.145 log2 fold change
- Dose.FC.LYZ.NS ([1]; primary screen, dose 0.40 uM): 0.073 log2 fold change
- Dose.FC.LYZ.NS ([1]; primary screen, dose 2.00 uM): 0.048 log2 fold change
- Dose.FC.LYZ.NS ([1]; primary screen, dose 10.00 uM): 0.013 log2 fold change
- Z.LYZ.NS [1, 3]: 1.263
- Z.LYZ.NS [1, 4]: 0.638
- Z.LYZ.NS [1, 5]: 0.420
- Z.LYZ.NS [1, 6]: 0.114
- Dose.FC.CTG (ENR+CD organoids; dose 0.08 uM): 0.294 log2 fold change
- Dose.FC.CTG (ENR+CD organoids; dose 0.40 uM): 0.265 log2 fold change
- Dose.FC.CTG (ENR+CD organoids; dose 2.00 uM): 0.242 log2 fold change
- Dose.FC.CTG (ENR+CD organoids; dose 10.00 uM): 0.253 log2 fold change
- Z.CTG (ENR+CD organoids; dose 0.08 uM): 0.703
- Z.CTG (ENR+CD organoids; dose 0.40 uM): 0.633
- Z.CTG (ENR+CD organoids; dose 2.00 uM): 0.578
- Z.CTG (ENR+CD organoids; dose 10.00 uM): 0.604
- Dose.FC.LYZ.S ([2]; dose 0.08 uM): 0.206 log2 fold change
- Dose.FC.LYZ.S ([2]; dose 0.40 uM): 0.293 log2 fold change
- Dose.FC.LYZ.S ([2]; dose 2.00 uM): 0.090 log2 fold change
- Dose.FC.LYZ.S ([2]; dose 10.00 uM): 0.011 log2 fold change
